Results: patent US20240368163A1, “COMPOUNDS AND METHODS FOR MODULATING SPLICING” (REMIX THERAPEUTICS INC., priority 2021, published 2024)
Like-named read-outs stand apart in the source and are kept apart here.

What was measured:
Format in all cases: cell-based, human
Target C [1] = assay: Splicing RT-qPCR panel, Target C canonical junction (CJ) mRNA; settings: RT-qPCR panel, canonical junction mRNA, compound concentration having 50% response in CJ decrease, read-out: Target C IC50 (decrease in CJ mRNA levels)
Method in brief: (§1)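 Cells: A673 (DMEM/10% FBS) or K562 (IMDM/10% FBS). Dose: 11-pt 3-fold, top 10 uM final, ≤0.25% DMSO, 24 h, 37 °C. Readout: RT-qPCR of CJ/AJ exon junctions, ΔΔCt vs housekeeper and DMSO, RQ to % response.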

HTT [2] = assay: Splicing RT-qPCR assay, HTT mRNA canonical junction (CJ) and alternative junction (AJ); settings: for AC50: increase in AJ mRNA
Method in brief: as §1

HTT [3] = assay: HiBiT protein abundance assay, HTT; settings: Table 13A, modified K562 cells
Method in brief: (§2)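 Luminescent readout from lytic HiBiT/LgBiT complementation reports endogenous tagged protein level in engineered K562 cells. Compounds dosed 24 h, top 10 μM final, 3-fold steps, 10 points. IC50 is the concentration giving 50% of untreated-control abundance, from 4-parameter logistic fit.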

SMN2 = assay: Splicing RT-qPCR panel, SMN2 canonical junction (CJ) mRNA; settings: RT-qPCR panel, canonical junction mRNA, compound concentration having 50% response in CJ decrease, read-out: SMN2 IC50 (decrease in CJ mRNA levels)
Method in brief: as §1

Target C [4] = assay: HiBiT protein abundance assay, Target C; settings: Table 13A, modified K562 cells
Method in brief: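 Knock-in HiBiT clones, 10000/well; 10-pt 3-fold titration, top 10 μM final; DMSO ≤0.25%; 24 h, 37 °C, 5% CO2. Lytic HiBiT luminescence readout. 4PL fit, IC50 = concentration giving 50% of untreated abundance.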

MYB [5] = assay: HiBiT protein abundance assay, MYB; settings: Table 13A, modified K562 cells
Method in brief: as §2

MYB [6] = assay: Splicing RT-qPCR assay, MYB mRNA canonical junction (CJ) and alternative junction (AJ); settings: for AC50: increase in AJ mRNA
Method in brief: as §1

[7] = Homo sapiens, 24 h, decrease in CJ mRNA, A673 or K562 cells, 24 hours treatment, RT-qPCR, read-out: HTT CJ IC50
[8] = Homo sapiens, 24 h, A673 or K562 cells, 24 hours treatment, RT-qPCR
[9] = Homo sapiens, RT-qPCR panel, canonical junction mRNA, compound concentration having 50% response in CJ decrease, read-out: HTT IC50 (decrease in CJ mRNA levels)
[10] = Homo sapiens, 24 h, decrease in CJ mRNA, A673 or K562 cells, 24 hours treatment, RT-qPCR, read-out: MYB CJ IC50
[11] = Homo sapiens, RT-qPCR panel, canonical junction mRNA, compound concentration having 50% response in CJ decrease, read-out: MYB IC50 (decrease in CJ mRNA levels)
[12] = RT-qPCR panel, canonical junction mRNA, compound concentration having 50% response in CJ decrease, read-out: HTT IC50 (decrease in CJ mRNA levels)
[13] = RT-qPCR panel, canonical junction mRNA, compound concentration having 50% response in CJ decrease, read-out: MYB IC50 (decrease in CJ mRNA levels)

SMILES	IC50 (Target C [1]; Homo sapiens)	IC50 (HTT [2]; [7])	AC50 (HTT [2]; [8])	IC50 (HTT [2]; [9])	IC50 (HTT [3]; Homo sapiens, K562, 24 h)	IC50 (SMN2; Homo sapiens)	IC50 (Target C [4]; Homo sapiens, K562, 24 h)	IC50 (MYB [5]; Homo sapiens, K562, 24 h)	IC50 (MYB [6]; [10])	AC50 (MYB [6]; [8])	IC50 (MYB [6]; [11])	IC50 (Target C [1])	IC50 (HTT [2]; [12])	IC50 (HTT [3]; 24 hours)	IC50 (SMN2)	IC50 (Target C [4]; 24 hours)	IC50 (MYB [5]; 24 hours)	IC50 (MYB [6]; [13])
c1nc2c(-c3cn[nH]c3)ccc(-c3ccc(N4CCNC(C5CC5)C4)nn3)c2s1 (stereo not shown) [Compound 417]	> 10000 nM	1000 to 10000 nM	> 10000 nM	1000 to 10000 nM	100 to 1000 nM	100 to 1000 nM	1000 to 10000 nM	> 10000 nM	1000 to 10000 nM	1000 to 10000 nM	1000 to 10000 nM	–	–	–	–	–	–	–
CN(c1ncc(-c2ccc(-c3cn[nH]c3)c3ncsc23)nn1)[C@@H]1C[C@H]2CC[C@@H](C1)N2 [Compound 420]	100 to 1000 nM	–	< 100 nM	< 100 nM	< 100 nM	100 to 1000 nM	< 100 nM	100 to 1000 nM	100 to 1000 nM	100 to 1000 nM	100 to 1000 nM	–	–	–	–	–	–	–
CN(c1ncc(-c2ccc(-c3cn[nH]c3)c3ncsc23)nn1)C1C[C@H]2CCC[C@H](C1)N2 (stereo partly shown) [Compound 421]	< 100 nM	–	< 100 nM	< 100 nM	< 100 nM	< 100 nM	< 100 nM	100 to 1000 nM	100 to 1000 nM	100 to 1000 nM	100 to 1000 nM	–	–	–	–	–	–	–
c1nc2c(-c3cn[nH]c3)ccc(-c3cnc(N[C@@H]4C[C@H]5CC[C@@H](C4)N5)nn3)c2s1 [Compound 422]	100 to 1000 nM	–	100 to 1000 nM	< 100 nM	100 to 1000 nM	100 to 1000 nM	100 to 1000 nM	100 to 1000 nM	100 to 1000 nM	1000 to 10000 nM	100 to 1000 nM	–	–	–	–	–	–	–
CN(c1ncc(-c2ccc(-c3cn[nH]c3)c3ncsc23)nn1)[C@H]1C[C@]2(C)CC[C@](C)(C1)N2 [Compound 424, (1S,5R)—N,1,5-trimethyl-N-[6-[4-(1H-pyrazol-4-yl)-1,3-benzothiazol-7-yl]-1,2,4-triazin-3-yl]-8-azabicyclo [3.2.1] octan-3-amine]	< 100 nM	–	< 100 nM	< 100 nM	< 100 nM	100 to 1000 nM	< 100 nM	100 to 1000 nM	100 to 1000 nM	100 to 1000 nM	100 to 1000 nM	–	–	–	–	–	–	–
CN(c1ncc(-c2ccc(-c3cn[nH]c3)c3ncsc23)nn1)[C@@H]1C[C@]2(C)CC[C@](C)(C1)N2 [Compound 425, (1S,5R)—N,1,5-trimethyl-N-[6-[4-(1H-pyrazol-4-yl)-1,3-benzothiazol-7-yl]-1,2,4-triazin-3-yl]-8-azabicyclo [3.2.1] octan-3-amine]	100 to 1000 nM	100 to 1000 nM	100 to 1000 nM	100 to 1000 nM	100 to 1000 nM	1000 to 10000 nM	100 to 1000 nM	1000 to 10000 nM	1000 to 10000 nM	> 10000 nM	1000 to 10000 nM	–	–	–	–	–	–	–
CN(c1ncc(-c2ccc(-c3cn[nH]c3)c3ncsc23)nn1)C1CC2CCC(C1)N2 (stereo not shown) [Compound 443]	100 to 1000 nM	–	–	< 100 nM	< 100 nM	100 to 1000 nM	< 100 nM	100 to 1000 nM	–	–	1000 to 10000 nM	–	–	–	–	–	–	–
CN(c1ncc(-c2ccc(-c3cn[nH]c3)c3ncsc23)nn1)[C@@H]1C[C@H]2CCC[C@@H](C1)N2 [Compound 449, (1S,5R)—N-methyl-N-[6-[4-(1H-pyrazol-4-yl)-1,3-benzothiazol-7-yl]-1,2,4-triazin-3-yl]-9-azabicyclo[3.3.1]nonan-3-amine]	< 100 nM	–	–	< 100 nM	< 100 nM	< 100 nM	< 100 nM	100 to 1000 nM	–	–	100 to 1000 nM	–	–	–	–	–	–	–
c1nc2c(-c3cn[nH]c3)ccc(-c3cnc(N4CCN[C@H](C5CC5)C4)nn3)c2s1 [Compound 451]	1000 to 10000 nM	–	–	1000 to 10000 nM	1000 to 10000 nM	1000 to 10000 nM	1000 to 10000 nM	1000 to 10000 nM	–	–	1000 to 10000 nM	–	–	–	–	–	–	–
c1cnn(-c2ccc(-c3cnc(N4CCC(NC5CC5)C4)nn3)c3cn[nH]c23)c1 (stereo not shown) [Compound 484, N-cyclopropyl-1-[6-(7-pyrazol-1-yl-1H-indazol-4-yl)-1,2,4-triazin-3-yl]pyrrolidin-3-amine]	> 10000 nM	–	–	1000 to 10000 nM	1000 to 10000 nM	1000 to 10000 nM	1000 to 10000 nM	> 10000 nM	–	–	> 10000 nM	–	–	–	–	–	–	–
CNC1CCN(c2ncc(-c3ccc(-n4cccn4)c4[nH]ncc34)nn2)C1 (stereo not shown) [Compound 485, N-methyl-1-[6-(7-pyrazol-1-yl-1H-indazol-4-yl)-1,2,4-triazin-3-yl]pyrrolidin-3-amine]	> 10000 nM	–	–	1000 to 10000 nM	1000 to 10000 nM	1000 to 10000 nM	1000 to 10000 nM	1000 to 10000 nM	–	–	1000 to 10000 nM	–	–	–	–	–	–	–
c1cnn(-c2ccc(-c3cnc(N4CCNC(C5CC5)C4)nn3)c3cn[nH]c23)c1 (stereo not shown) [Compound 511]	100 to 1000 nM	–	–	< 100 nM	100 to 1000 nM	100 to 1000 nM	100 to 1000 nM	1000 to 10000 nM	–	–	1000 to 10000 nM	–	–	–	–	–	–	–
c1cnn(-c2ccc(-c3cnc(N4CCC(NC5CC5)C4)nn3)c3cn[nH]c23)c1 (stereo not shown) [Compound 548]	–	–	–	–	–	–	–	–	–	–	–	> 10000 nM	1000 to 10000 nM	1000 to 10000 nM	1000 to 10000 nM	1000 to 10000 nM	> 10000 nM	> 10000 nM
CNC1CCN(c2ncc(-c3ccc(-n4cccn4)c4[nH]ncc34)nn2)C1 (stereo not shown) [Compound 549]	–	–	–	–	–	–	–	–	–	–	–	> 10000 nM	1000 to 10000 nM	1000 to 10000 nM	1000 to 10000 nM	1000 to 10000 nM	1000 to 10000 nM	1000 to 10000 nM
c1nc2c(-c3cn[nH]c3)ccc(-c3cnc(N4CCN[C@@H](C5CC5)C4)nn3)c2s1 [Compound 552]	1000 to 10000 nM	–	–	100 to 1000 nM	100 to 1000 nM	100 to 1000 nM	100 to 1000 nM	1000 to 10000 nM	–	–	1000 to 10000 nM	–	–	–	–	–	–	–
CC1(C)CC(Oc2ccc(-c3ccc(-n4cccn4)c4[nH]ncc34)nn2)CC(C)(C)N1 [Compound 554]	1000 to 10000 nM	–	–	100 to 1000 nM	100 to 1000 nM	100 to 1000 nM	100 to 1000 nM	100 to 1000 nM	–	–	100 to 1000 nM	–	–	–	–	–	–	–
CC1(C)CC(Nc2ccc(-c3ccc(-n4cccn4)c4[nH]ncc34)nn2)CC(C)(C)N1 [Compound 558]	100 to 1000 nM	–	–	100 to 1000 nM	< 100 nM	< 100 nM	< 100 nM	100 to 1000 nM	–	–	100 to 1000 nM	–	–	–	–	–	–	–
CN(c1ccc(-c2ccc(-n3cccn3)c3[nH]ncc23)nn1)C1CC(C)(C)NC(C)(C)C1 [Compound 559]	1000 to 10000 nM	–	–	100 to 1000 nM	100 to 1000 nM	100 to 1000 nM	100 to 1000 nM	100 to 1000 nM	–	–	1000 to 10000 nM	–	–	–	–	–	–	–
c1cnn(-c2ccc(-c3ccc(N4CCNC(C5CC5)C4)nn3)c3cn[nH]c23)c1 (stereo not shown) [Compound 560]	1000 to 10000 nM	–	–	100 to 1000 nM	100 to 1000 nM	100 to 1000 nM	100 to 1000 nM	1000 to 10000 nM	–	–	1000 to 10000 nM	–	–	–	–	–	–	–
C[C@@H]1CN(c2ncc(-c3ccc(-c4cn[nH]c4)c4ncsc34)nn2)C[C@H](C)N1 [Compound 562]	> 10000 nM	–	–	> 10000 nM	1000 to 10000 nM	1000 to 10000 nM	1000 to 10000 nM	1000 to 10000 nM	–	–	> 10000 nM	–	–	–	–	–	–	–
CC1(C)CN(c2ncc(-c3ccc(-c4cn[nH]c4)c4ncsc34)nn2)CC(C)(C)N1 [Compound 563]	> 10000 nM	–	–	1000 to 10000 nM	1000 to 10000 nM	1000 to 10000 nM	1000 to 10000 nM	1000 to 10000 nM	–	–	1000 to 10000 nM	–	–	–	–	–	–	–
CN1CCN(c2ncc(-c3ccc(-c4cn[nH]c4)c4ncsc34)nn2)CC1C1CC1 (stereo not shown) [Compound 564]	1000 to 10000 nM	–	–	100 to 1000 nM	100 to 1000 nM	100 to 1000 nM	100 to 1000 nM	1000 to 10000 nM	–	–	1000 to 10000 nM	–	–	–	–	–	–	–
c1nc2c(-c3cn[nH]c3)ccc(-c3cnc(N4CCN5CCCC5C4)nn3)c2s1 (stereo not shown) [Compound 565]	> 10000 nM	–	–	1000 to 10000 nM	1000 to 10000 nM	1000 to 10000 nM	1000 to 10000 nM	1000 to 10000 nM	–	–	1000 to 10000 nM	–	–	–	–	–	–	–
